Tests used:
chimeric α7-GluClβR [1] = molecular target: chimeric α7-GluClβR (Gallus gallus / Caenorhabditis elegans, UniProt P22770, M226I/T225I); assay: ACh dose-response, whole-cell patch clamp in CHO cells expressing the chimeric receptor; type: cell-based, chick nAChR α7 / C. elegans GluClβ; conditions: −60 mV
chimeric α7-GluClβR [2] = assay: IVM added after activation by ACh: kinetics and extent of current decline (whole-cell patch clamp); type: cell-based, chick nAChR α7 / C. elegans GluClβ
Experimental: Following a further wash (for a minute), the same cell was challenged again with a 5-μM-IVM solution (in 0.01% DMSO; red bar, arrow and trace). Recordings were performed at −60 mV. (B) Time constant of current decline (τd). Values of τd were determined by exponential fits to the declining phase of the currents using Eq. 3. […] Error bars correspond to SEM of N = 6 and N = 5 cells for recordings at −60 mV and −20 mV, respectively. Paired, two-tailed Student’s t-tests indicate that for not significant (“ns”) P > 0.3, and ** 0.001 < P < 0.005.
Figure 8 The inhibition of ACh-elicited currents by addition of IVM is irreversible. […] (B) Representative currents for the same experiment as in A, but with the exception of IVM (0.5 μM) addition after the ACh-elicited current reached to its peak (IP1). Inset, magnification of the indicated segment of the current trace. In both panels A and B, black bars above the current traces indicate ACh or IVM applications. […] Error bars correspond to SEM. Unpaired, two-tailed Student’s t-tests indicate *** P < 0.0001.
The declining phase of the currents was fitted with an exponential time course to give the time constant of current decline by using equation 3, […]
I is the current, IP is the peak of the current, IS is the steady state current, t is the time, and τ is the time constant of current decline. […]
Supplementary Materials and Methods
The structural mo del of the chi meric α7-GluClβR was built based on th e methodologies published previously1,2, and the sequence of the chimeric subunit is presented in […]
DNA construct and preparation of cells for electrophysiological experiments The cDNA encoding the α7-GluClβ chimeric subunit was generated as described previously3, and was cloned into a pcDNA3.1 vector.
Chinese hamster ovary cells (CHO-K1, ATCC via Biological Industries Israel, Beit Haemek Ltd.) were cultured as performed previously2 in Dulbecco 's Modified E agle Med iu m (DMEM) containing 10% fetal calf serum (Biological Industries Israel Beit Haemek Ltd.), 2 mM glutamax, 100 Units/ml penicillin G and 100 μg/ml streptomycin, and grown in 5% CO2 at 37°C under 90-95% hu midity . CHO cells were seeded on glass coverslips (13-mm diameter) placed in a 24-multiwell plate. For the expression of the α7-GluClβR, cells were transiently transfected with the pcDNA3.1 plasmid containing the receptor’s ORF (200-600 ng per well) using transit-LT1 transfection reagent (Mirus, USA), according to the manufacturer’s protocol. pIRES-CD8 plas mid (200 ng per well) was also added to enable visualization of the ex pressing cells by beads coated with anti-CD8 antibodies (Invitrogen). For the expression of GluClβ ho mo mers, we used the pcDNA3.1 plas mid containing the GluClβ-subunit ORF (600-1000 ng per well), pIRES-CD8 plas mid (200 ng per well) and th e X-tremeGENE HP DNA Transfection Reagent (Roche Life Science). Recordings were performed 48-72 hours following transfection.
Whole-cell patch clamp recordings
Recordings were performed in the aforementioned CHO cells, as previously described1,2. Whole-cell patch clamp experiments were performed with normal external solution (NES) contained (in millimolar): 140 NaCl, 2.8 KCl, 2 CaCl2, 2 MgCl2, 10 glucose and 10 HEPES, adjusted to pH 7.35 with NaOH (310 mOsM). The pipette solution contained […]
(in millimolar): 130 KCl, 4 MgCl2, 4 Na2ATP, 1 EGTA and 10 HEPES, adjusted to pH 7.35 with KOH (290 mOsM). The osmolarity of these solutions was maintained by adding sucrose.
The electrode resistance was 6-10 MΩ when filled with the pipette solution. External solutions were applied onto the cell by using the VC-77SP fast-step system (Warner Instruments, CT, USA) combined with N2 pressure of 3-4 psi to produce laminar flow of the external solution onto the patched cell. All measurements were performed at 25 °C. The currents w ere measured with an Axopatch 200B patch-clamp amplifier (Molecular Devices, Sunnyvale, CA) and a Digidata 1440A interface (Molecular Devices). […]

homomeric GluClβR [3] = tested on: T1, homomeric GluClβR; assay: Effect of IVM on Glu-elicited currents of homomeric GluClβ receptors in CHO cells (whole-cell patch clamp); type: cell-based, C. elegans; conditions: 100 mM Glu, four cells, mean ± SEM
T1 construct: homomeric receptors assembled from the full-length C. elegans GluClβ subunit; expressed in transfected cells; host or cells: CHO-K1 cells, transient transfection, pcDNA3.1
Experimental: Figure 9 Effect of IVM on homomeric GluClβ receptors. (A) Representative current traces obtained by the indicated application protocol. Glu (100 mM) was applied for either 350 ms to obtain peak IP0 at −60 mV, or 600 ms to obtain peaks IP1, IP2 and IP3 at +60 mV. Note that the responses at both membrane voltages, −60 and +60 mV, start to desensitize appreciably before the end of Glu application. IVM (2 μM) was applied for 10 seconds. Asterisk indicates a 25-sec-long wash between the second and third Glu applications. (B) Current-voltage (I/V) relations obtained in a different cell than in A upon the application of Glu (100 mM) over a voltage ramp lasting 200 ms. […] Current ratios were extracted from experiments performed as shown in (A). Mean ± SEM of four cells are presented. Paired, two-tailed Student’s t-tests indicate that **0.001 < P < 0.01 and ***P < 0.0002.
Supplementary Information
Trapping of ivermectin by a pentameric ligand-gated ion channel upon open-to-cl ose d i someri zati on N. Degani-Katzav, M. Klein, M. Har-Even, R. Gortler, R. Tobi and Y. Paas*
Supplementary Materials and Methods […]
The electrode resistance was 6-10 MΩ when filled with the pipette solution. […] The currents w ere measured with an Axopatch 200B patch-clamp amplifier (Molecular Devices, Sunnyvale, CA) and a Digidata 1440A interface (Molecular Devices). […]

homomeric GluClβR [4] = tested on: homomeric GluClβR; set-up: method as in PMID 7935817; conditions: Xenopus oocytes; read-out: Glu EC50; cited from earlier work

Sequence of chimeric α7-GluClβR (Gallus gallus / Caenorhabditis elegans, UniProt P22770, M226I/T225I) (P22770 24-230 T225I/M226I): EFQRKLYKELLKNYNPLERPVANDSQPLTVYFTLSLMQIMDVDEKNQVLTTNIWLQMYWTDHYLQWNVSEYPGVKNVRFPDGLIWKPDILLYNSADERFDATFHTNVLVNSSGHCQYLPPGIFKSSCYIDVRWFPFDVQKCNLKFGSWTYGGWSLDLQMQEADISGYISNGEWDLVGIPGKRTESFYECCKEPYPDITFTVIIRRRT
Sequence of chimeric α7-GluClβR (Gallus gallus / Caenorhabditis elegans, UniProt P22770, M226I/T225I) (Q17328 245-434, further chain): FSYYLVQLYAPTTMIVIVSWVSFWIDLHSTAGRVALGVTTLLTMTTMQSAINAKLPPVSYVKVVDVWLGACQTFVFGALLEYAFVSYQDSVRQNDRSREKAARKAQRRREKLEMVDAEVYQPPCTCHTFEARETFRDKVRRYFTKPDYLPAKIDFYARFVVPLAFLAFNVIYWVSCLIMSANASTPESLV

Row | Compound | Hill coefficient (ACh dose-response) (chimeric α7-GluClβR [1]) | current remaining at end of initial application, percent IS/IP1 (chimeric α7-GluClβR [2]; 30 μM ACh alone for 9.6 sec, N = 10) | τd1, time constant of current decline (chimeric α7-GluClβR [2]; 30 μM ACh alone, 9.6 sec, N = 10) | current remaining at end of application, percent of the peak amplitude (chimeric α7-GluClβR [2]; 350 μM ACh alone for 5.5 sec, N = 5) | time between the start of application and the onset of effect (chimeric α7-GluClβR [2]; six experiments as in Fig. 5A, 350 μM ACh, 5 μM IVM) | I+60mV/I−60mV of Glu-elicited responses (homomeric GluClβR [3]) | EC50 (homomeric GluClβR [4])
1 | CC(=O)OCC[N+](C)(C)C [ACh, acetylcholine] | 2.55 ± 0.3 | 35 ± 4% | 4268 ± 224 ms | 31 ± 8.6% | 67 ± 7 milliseconds | – | –
2 | N[C@@H](CCC(=O)O)C(=O)O [Glu, glutamate] | – | – | – | – | – | 2.8 ± 0.2 | 380 µM
